Assay results taken from DBAASP.
Values after ≈ are worked out from the molar mass of the structure shown. Each block holds one compound with its values, some of them ahead of it.

Legend:
Test in all cases: ≥ marks a high value that may be exact or a test limit, other limits are often not marked, values filed in µg/mL are converted to µM
[1] = system: Micrococcus luteus ATCC 10420
Salmonella typhimurium = system: Salmonella typhimurium
[2] = system: Staphylococcus epidermidis ATCC 9709
[3] = system: Staphylococcus aureus ATCC 29213
[4] = system: Escherichia coli ATCC 25404
[5] = system: Staphylococcus aureus ATCC 43300
Escherichia coli O157 = system: Escherichia coli O157
Listeria monocytogenes = system: Listeria monocytogenes
[6] = system: Staphylococcus aureus ATCC 25923
[7] = system: Psychrobacter faecalis X29
[8] = system: Candida albicans ATCC 2002
[9] = system: Enterococcus faecium 091299
[10] = system: Enterococcus faecalis 981
[11] = system: Rhodococcus rhodochrous X15
[12] = system: Staphylococcus carnosus KHS
[13] = system: Bacillus licheniformis X39
[14] = system: Escherichia coli ATCC 25922
[15] = system: Stenotrophomonas maltophilia B32/1
[16] = system: Candida albicans ATCC 90028
[17] = system: Staphylococcus aureus 127/08
[18] = system: Stenotrophomonas maltophilia B32/4
[19] = system: Pseudomonas aeruginosa ATCC 27853
[20] = system: Escherichia coli ATCC 25726
[21] = system: Klebsiella pneumoniae ATCC 700603
[22] = system: Acinetobacter baumannii NM8
[23] = system: Pseudomonas aeruginosa ATCC BAA-427
[24] = system: Klebsiella pneumoniae ATCC 27736
[25] = system: Micrococcus luteus AB2010179
Pseudomonas fluorescens = system: Pseudomonas fluorescens
[26] = system: Acinetobacter baumannii ATCC 19606
[27] = system: Salmonella enterica AB2010185
[28] = system: Staphylococcus aureus ATCC 33591
Pseudomonas putida = system: Pseudomonas putida
[29] = system: Enterobacter cloacae AB2010162
[30] = system: Bacillus magaterium AB90008
[31] = system: Escherichia coli DH5alpha
[32] = system: Staphylococcus aureus AB94004
Escherichia coli UB1005 = system: Escherichia coli UB1005
Escherichia coli DC2 = system: Escherichia coli DC2
[33] = system: Corynebacterium xerosis C875
[34] = system: Staphylococcus epidermidis C621

SMILES: CC(C)C[C@H](NC(=O)[C@H](CC(C)C)NC(=O)[C@H](Cc1cnc[nH]1)NC(=O)[C@H](CO)NC(=O)[C@H](CC(C)C)NC(=O)[C@H](C)NC(=O)[C@H](CCCCN)NC(=O)[C@H](Cc1ccccc1)NC(=O)[C@H](CC(C)C)NC(=O)[C@H](C)NC(=O)CNC(=O)[C@H](CC(C)C)NC(=O)[C@@H](N)Cc1ccccc1)C(=O)O [FLGALFKALSHLL]
MIC [1]: 8 µM (≈ 11.4 µg/mL) | MIC (Salmonella typhimurium): ≥ 64 µM | MIC [2]: 8 µM (≈ 11.4 µg/mL) | MIC [3]: 8 µM (≈ 11.4 µg/mL) | MIC [4]: ≥ 64 µM | MIC [5]: 4 µM (≈ 5.72 µg/mL) | MIC (Escherichia coli O157): ≥ 64 µM | MIC (Listeria monocytogenes): 8 µM (≈ 11.4 µg/mL)

SMILES: CC[C@H](C)[C@H](N)C(=O)N[C@@H](CC(C)C)C(=O)NCC(=O)N[C@@H](CCC(=O)O)C(=O)N[C@H](C(=O)N[C@@H](Cc1c[nH]c2ccccc12)C(=O)N[C@@H](CCCCN)C(=O)NCC(=O)N[C@H](C(=O)N[C@@H](CCCCN)C(=O)N[C@@H](CC(=O)O)C(=O)N[C@H](C(=O)N[C@@H](CC(C)C)C(N)=O)[C@@H](C)CC)[C@@H](C)CC)[C@@H](C)CC [ILGEIWKGIKDIL]
MIC [23]: ≥ 100 µM | MIC [24]: ≥ 100 µM | MIC [25]: ≥ 82 µM | MIC (Pseudomonas fluorescens): ≥ 82 µM | MIC [26]: > 26.7 µM | MIC [6]: ≥ 100 µM | MIC [27]: ≥ 82 µM | MIC [28]: ≥ 100 µM | MIC (Pseudomonas putida): ≥ 82 µM | MIC [29]: ≥ 82 µM | MIC [30]: ≥ 41 µM | MIC [31]: ≥ 82 µM | MIC [14]: ≥ 100 µM | MIC [32]: ≥ 82 µM

SMILES: CC[C@H](C)[C@@H]1NC(=O)[C@H](CCCCN)NC(=O)[C@@H](NC(=O)[C@H](C)NC(=O)[C@@H](NC(=O)[C@H](CC(C)C)NC(=O)[C@H](CC(=O)O)NC(=O)[C@@H](NC(=O)CNC(=O)[C@H](CC(C)C)NC(=O)[C@H](CCCCN)NC(=O)[C@H](C)NC(=O)[C@H](CC(C)C)NC(=O)[C@H](CC(=O)O)NC(=O)[C@H](CCCCN)NC(=O)CNC(=O)[C@H](CC(C)C)NC(=O)CNC(=O)[C@@H](N)CCCCN)C(C)C)C(C)C)CSSC[C@@H](C(=O)O)NC(=O)[C@H](CCC(N)=O)NC(=O)[C@H](CCCCN)NC(=O)[C@H](CO)NC1=O [KGLGKDLAKLGVDLVACKISKQC]
MIC [15]: ≥ 200 µM | MIC [17]: ≥ 200 µM | MIC [18]: ≥ 200 µM | MIC [6]: > 200 µM | MIC [20]: ≥ 200 µM | MIC [22]: ≥ 200 µM

SMILES: C[C@H](NC(=O)[C@H](C)NC(=O)[C@H](C)NC(=O)[C@H](Cc1cnc[nH]1)NC(=O)[C@H](C)NC(=O)[C@H](C)NC(=O)[C@H](C)NC(=O)[C@H](CCCCN)NC(=O)[C@@H](N)CCCCN)C(=O)N[C@@H](C)C(=O)N[C@@H](C)C(=O)N[C@@H](Cc1cnc[nH]1)C(=O)N[C@@H](C)C(=O)N[C@@H](C)C(=O)N[C@@H](Cc1c[nH]c2ccccc12)C(=O)N[C@@H](C)C(=O)N[C@@H](C)C(=O)N[C@@H](Cc1cnc[nH]1)C(=O)N[C@@H](C)C(=O)N[C@@H](C)C(=O)N[C@@H](C)C(=O)N[C@@H](CCCCN)C(=O)N[C@@H](CCCCN)C(=O)N[C@@H](CCCCN)C(=O)N[C@@H](CCCCN)C(N)=O [KKAAAHAAAAAHAAWAAHAAAKKKK]
MIC (Escherichia coli UB1005): ≥ 64 µM | MIC (Escherichia coli DC2): ≥ 64 µM | MIC [33]: ≥ 32 µM | MIC [34]: ≥ 64 µM

Continued, values first:

MIC [1]: 2 µM (≈ 2.92 µg/mL) | MIC (Salmonella typhimurium): ≥ 64 µM | MIC [2]: 4 µM (≈ 5.84 µg/mL) | MIC [6]: 4 µM (≈ 5.84 µg/mL) | MIC [4]: ≥ 64 µM | MIC (Escherichia coli O157): ≥ 64 µM | MIC (Listeria monocytogenes): 4 µM (≈ 5.84 µg/mL)
SMILES: CC(C)C[C@H](NC(=O)[C@H](CC(C)C)NC(=O)[C@H](CCCCN)NC(=O)[C@H](CO)NC(=O)[C@H](CC(C)C)NC(=O)[C@H](C)NC(=O)[C@H](CCCCN)NC(=O)[C@H](Cc1c[nH]c2ccccc12)NC(=O)[C@H](CC(C)C)NC(=O)[C@H](C)NC(=O)CNC(=O)[C@H](CC(C)C)NC(=O)[C@@H](N)Cc1ccccc1)C(=O)O [FLGALWKALSKLL]

MIC [7]: 9.5 µM (≈ 24.9 µg/mL) | MIC [8]: 9.5 µM (≈ 24.9 µg/mL) | MIC [9]: ≥ 37.5 µM | MIC [10]: ≥ 75 µM | MIC [11]: 1.2 µM (≈ 3.14 µg/mL) | MIC [6]: 2.4 µM (≈ 6.28 µg/mL) | MIC [12]: 19 µM (≈ 49.7 µg/mL) | MIC [13]: 2.4 µM (≈ 6.28 µg/mL) | MIC [14]: 150 µM (≈ 392 µg/mL)
SMILES: CC[C@H](C)[C@H](NC(=O)[C@H](CC(C)C)NC(=O)[C@@H]1CCCN1C(=O)[C@H](CC(C)C)NC(=O)[C@@H](N)Cc1ccccc1)C(=O)N[C@@H](C)C(=O)N[C@@H](CO)C(=O)N[C@H](C(=O)N[C@@H](C)C(=O)N[C@@H](C)C(=O)N[C@@H](CC(N)=O)C(=O)N[C@@H](CC(C)C)C(=O)N[C@H](C(=O)N1CCC[C@H]1C(=O)N[C@@H](CCCCN)C(=O)N[C@H](C(=O)N[C@@H](Cc1ccccc1)C(=O)N[C@H]1CSSC[C@@H](C(=O)O)NC(=O)[C@H](CCCCN)NC(=O)[C@H](CCCCN)NC(=O)[C@H]([C@@H](C)O)NC(=O)[C@H]([C@@H](C)CC)NC(=O)[C@H](CCCCN)NC1=O)[C@@H](C)CC)C(C)C)C(C)C [FLPLIASVAANLVPKIFCKITKKC]

MIC [15]: 6 µM (≈ 23 µg/mL) | MIC [16]: 10 µM (≈ 38.4 µg/mL) | MIC [17]: 6 µM (≈ 23 µg/mL) | MIC [18]: 3 µM (≈ 11.5 µg/mL) | MIC [6]: 5 µM (≈ 19.2 µg/mL) | MIC [19]: 5 µM (≈ 19.2 µg/mL) | MIC [20]: 5 µM (≈ 19.2 µg/mL) | MIC [21]: 5 µM (≈ 19.2 µg/mL) | MIC [22]: 6 µM (≈ 23 µg/mL)
SMILES: CC[C@H](C)[C@@H]1NC(=O)[C@H](CCCCN)NC(=O)[C@@H](NC(=O)[C@H](C)NC(=O)[C@@H](NC(=O)[C@H](CC(C)C)NC(=O)[C@H](CC(=O)O)NC(=O)[C@@H](NC(=O)CNC(=O)[C@H](CC(C)C)NC(=O)[C@H](CCCCN)NC(=O)[C@H](C)NC(=O)[C@H](CC(C)C)NC(=O)[C@H](CC(=O)O)NC(=O)[C@H](CCCCN)NC(=O)CNC(=O)[C@H](CC(C)C)NC(=O)CNC(=O)[C@H](CCCCN)NC(=O)[C@H](CO)NC(=O)[C@H](C)NC(=O)[C@H](Cc2ccccc2)NC(=O)[C@H](CCCCN)NC(=O)[C@H](C)NC(=O)[C@@H](NC(=O)CNC(=O)[C@H](CCCN=C(N)N)NC(=O)[C@H](Cc2ccccc2)NC(=O)[C@@H](NC(=O)[C@H](CO)NC(=O)[C@H](CO)NC(=O)[C@H](Cc2ccccc2)NC(=O)CN)[C@@H](C)CC)C(C)C)C(C)C)C(C)C)CSSC[C@@H](C(=O)O)NC(=O)[C@H](CCC(N)=O)NC(=O)[C@H](CCCCN)NC(=O)[C@H](CO)NC1=O [GFSSIFRGVAKFASKGLGKDLAKLGVDLVACKISKQC]
